Test results from ChEMBL document CHEMBL4483862, “Open-source discovery of chemical leads for next-generation chemoprotective antimalarials” (2018).

Test system: Plasmodium berghei
Experiment: Luciferase/luciferin-expressing antifolate-resistant parasites were used to infect a culture of HepG2 cells that were pre-incubated with compounds. Infected hepatocytes emit light due to the luciferase reaction. Assay results are presented as the percent inhibition of light emission compared to control. […]
Format: functional
Details: sporozoite; for IC90: read-out: LUCIFERASE INFECTION ASSAY - IC90
[1] = read-out: LUCIFERASE INFECTION ASSAY - IC50

Structure (SMILES)	IC50 [1] [µM]	IC90 [µM]	other results
COC(=O)/C=C/c1ccc(OCC(O)COc2ccc(C(C)(C)C)cc2)c(OC)c1 (stereo unspecified)	> 10	> 10	–
N#CC(C(=O)c1ccc(Br)s1)c1nc2ccccc2s1 (stereo unspecified)	–	3.8	IC50 (HEPG2TOX_HILL_SLOPE 2.2, HEPG2TOX_R_SQUARED 0.729, PBLUC_HILL_SLOPE 11.3, 11.3, PBLUC_R_SQUARED 0.872, 0.879, read-out: LUCIFERASE INFECTION ASSAY - IC50): 3.13 µM
Nc1nc(Sc2ncnc3sccc23)nc2sccc12	–	8.89	IC50 (PBLUC_HILL_SLOPE 20, PBLUC_R_SQUARED 0.321, read-out: LUCIFERASE INFECTION ASSAY - IC50): 7.96 µM
COc1ccc(C2NC(=O)NC(c3ccccc3)=C2c2nc3ccccc3s2)cc1OCc1ccccc1 (stereo unspecified)	9.63	> 10	–
N#CC(C(=O)c1ccccc1NC(=O)C(F)(F)F)c1nc(-c2ccc(Cl)cc2)cs1 (stereo unspecified)	–	> 10	IC50 (FFLUC_HILL_SLOPE 12.8, FFLUC_R_SQUARED 0.656, read-out: LUCIFERASE INFECTION ASSAY - IC50): > 10 µM
Cc1ccc(S(=O)(=O)Nc2ccc(C(=O)Nc3ccccc3O)cc2)cc1C	–	2.52	IC50 (PBLUC_HILL_SLOPE 2.83, PBLUC_R_SQUARED 0.529, read-out: LUCIFERASE INFECTION ASSAY - IC50): 1.16 µM
CC(C)N1/C(=C/c2ccc3c(c2)OCCO3)C(=O)c2ccccc2S1(=O)=O	–	> 8.56	IC50 (HEPG2TOX_HILL_SLOPE 4.1, HEPG2TOX_R_SQUARED 0.916, PBLUC_HILL_SLOPE 3.33, PBLUC_R_SQUARED 0.555, read-out: LUCIFERASE INFECTION ASSAY - IC50): 5.07 µM
COc1ccc(OCCCC(=O)N(c2nc3ccccc3s2)c2cc(C(F)(F)F)ccc2Cl)cc1	> 10	> 10	–
N#Cc1cc(NC(=O)c2cccc(Cl)c2)ccc1Sc1cccc(C(F)(F)F)c1	> 7.62	> 7.62	–
CCc1ccccc1Nc1c(Cl)c(C)nc2ncnn12	–	> 11.5	IC50 (HEPG2TOX_HILL_SLOPE 1.69, HEPG2TOX_R_SQUARED 0.869, PBLUC_HILL_SLOPE 4.69, PBLUC_R_SQUARED 0.317, read-out: LUCIFERASE INFECTION ASSAY - IC50): 7.45 µM
COc1ccc(NC(=O)C(C)N2CCN(CCc3ccccc3)CC2)cc1Cl (stereo unspecified)	> 10	> 10	–
O=C(C1CCCO1)N1CCn2c1nc1ccccc12 (stereo unspecified)	> 10	> 10	–
CCCCNC(=O)c1c(NC(=O)c2c(F)ccc(F)c2F)nc2ccccn12	> 8.45	> 8.45	–
COC(=O)c1ccc2c(=O)nc(CN3CCc4sccc4C3C)[nH]c2c1 (stereo unspecified)	–	> 10	IC50 (PBLUC_HILL_SLOPE 11, PBLUC_R_SQUARED 0.235, read-out: LUCIFERASE INFECTION ASSAY - IC50): > 10 µM
CCc1ccc(/C=C/c2ccc3cccc(O)c3n2)cc1	–	0.313	IC50 (FFLUC_HILL_SLOPE 27.9, FFLUC_R_SQUARED 0.597, HEPG2TOX_HILL_SLOPE 1.09, HEPG2TOX_R_SQUARED 0.82, PBLUC_HILL_SLOPE 3.2, PBLUC_R_SQUARED 0.533, read-out: LUCIFERASE INFECTION ASSAY - IC50): 0.157 µM
Cc1cc(C)c(NC(=O)c2cc(-c3ccccc3)nn2-c2ccccc2)c(C)c1	> 10	> 10	–
Cc1ccc(S(=O)(=O)N2CCSc3cc(Cl)ccc32)cc1	–	3.49	IC50 (HEPG2TOX_HILL_SLOPE 2.16, HEPG2TOX_R_SQUARED 0.961, PBLUC_HILL_SLOPE 19.3, PBLUC_R_SQUARED 0.449, read-out: LUCIFERASE INFECTION ASSAY - IC50): 3.12 µM
COc1cccc(C(=O)Nc2ccc(Sc3cccc(C(F)(F)F)c3)c(C#N)c2)c1	> 7.7	> 7.7	–
Cc1ccc(-c2nn(-c3ccccc3)cc2/C=C(/C(=O)c2ccccc2)c2nc3ccccc3s2)o1	–	> 10	IC50 (FFLUC_HILL_SLOPE 2.3, FFLUC_R_SQUARED 0.652, PBLUC_HILL_SLOPE 2.05, PBLUC_R_SQUARED 0.091, read-out: LUCIFERASE INFECTION ASSAY - IC50): > 10 µM
O=C(Cc1ccsc1)NNC(=O)c1cccc(S(=O)(=O)Nc2cccc(C(F)(F)F)c2)c1	> 10	> 10	–
CCNC(=O)Cc1ccc(NC(=O)c2csc(Br)c2)cc1	–	> 10	IC50 (FFLUC_HILL_SLOPE 10.6, FFLUC_R_SQUARED 0.0524, read-out: LUCIFERASE INFECTION ASSAY - IC50): > 10 µM
COc1ccc(-c2cc3ncnc(NCC4CN(Cc5ccccc5)CCO4)c3s2)cc1 (stereo unspecified)	–	> 10	IC50 (PBLUC_HILL_SLOPE 9.06, PBLUC_R_SQUARED 0.282, read-out: LUCIFERASE INFECTION ASSAY - IC50): 8.38 µM

Structure (SMILES)	IC50 [1] [µM]	IC90 [µM]	other results
O=C(N/N=C/c1c(-c2ccccc2)nc2sc3c(n12)CCCC3)c1ccccc1	–	0.858	IC50 (FFLUC_HILL_SLOPE 0.805, FFLUC_R_SQUARED 0.757, PBLUC_HILL_SLOPE 1.27, PBLUC_R_SQUARED 0.855, read-out: LUCIFERASE INFECTION ASSAY - IC50): 0.153 µM
CC(=O)c1ccc(NC(=O)Nc2ccc3nc(-c4cccc(C(F)(F)F)c4)nn3c2)cc1	3.53	7.78	–
Cn1c(=O)n(C2CCCCC2)c(=O)c2ccccc21	> 12.8	> 12.8	–
CCOc1ccc(-c2nnc(SCc3csc(Nc4ccc(C)cc4)n3)n2-c2ccccc2F)cc1	–	> 10	IC50 (HEPG2TOX_HILL_SLOPE 1.93, HEPG2TOX_R_SQUARED 0.706, PBLUC_HILL_SLOPE 2.19, PBLUC_R_SQUARED 0.586, read-out: LUCIFERASE INFECTION ASSAY - IC50): 5.29 µM
CC(=O)Nc1ccc(NC(=O)/C=C/c2cc(C)n(-c3ccccc3)c2C)c(C(F)(F)F)c1	–	9.3	IC50 (PBLUC_HILL_SLOPE 1.31, PBLUC_R_SQUARED 0.816, read-out: LUCIFERASE INFECTION ASSAY - IC50): 1.74 µM
CC(C)(C)c1nnc(Sc2ncc([N+](=O)[O-])s2)[nH]1	–	11.3	IC50 (FFLUC_HILL_SLOPE 12.8, FFLUC_R_SQUARED 0.253, HEPG2TOX_HILL_SLOPE 7.13, HEPG2TOX_R_SQUARED 0.706, PBLUC_HILL_SLOPE 14.6, PBLUC_R_SQUARED 0.134, read-out: LUCIFERASE INFECTION ASSAY - IC50): 9.74 µM
COc1ccc(CNCc2ccc3ccccc3c2)cc1	> 11.9	> 11.9	–
Cc1cc(N2CCN(CC(=O)N(C)C)CC2)nc2c(C(C)C)cccc12	–	6.13	IC50 (PBLUC_HILL_SLOPE 64.7, PBLUC_R_SQUARED 0.2, read-out: LUCIFERASE INFECTION ASSAY - IC50): 5.93 µM
CCOc1cc(CN(C)c2cncc(-n3cccn3)n2)ccc1OC(F)F	> 10	> 10	–
O=C(Nc1cccc(S(=O)(=O)N2CCCCC2)c1)c1cn(-c2ccccc2C(F)(F)F)nn1	–	> 10	IC50 (FFLUC_HILL_SLOPE 0.647, FFLUC_R_SQUARED 0.258, read-out: LUCIFERASE INFECTION ASSAY - IC50): > 10 µM
Cc1nc(N2CCN(C(=O)C(C)C)CC2)c2c3c(sc2n1)CC(C)CC3 (stereo unspecified)	–	> 10	IC50 (PBLUC_HILL_SLOPE 12.1, PBLUC_R_SQUARED 0.479, read-out: LUCIFERASE INFECTION ASSAY - IC50): 9.05 µM
Cc1[nH]c(=O)c(C#N)cc1C(=O)CSc1ccc(C(C)(C)C)cc1	> 9.69	> 9.69	–
CC(=O)c1ccc(-c2ccc(C(=O)Nc3cnc4c(cnn4C(C)C)c3)o2)cc1	–	8.52	IC50 (HEPG2TOX_HILL_SLOPE 16.5, HEPG2TOX_R_SQUARED 0.628, PBLUC_HILL_SLOPE 4.19, PBLUC_R_SQUARED 0.524, read-out: LUCIFERASE INFECTION ASSAY - IC50): 5.04 µM
O=C(Nc1nc(-c2ccccn2)cs1)c1cc([N+](=O)[O-])ccc1N1CCC(Cc2ccccc2)CC1	> 10	> 10	–
CC(C)NC(=O)N1CCCC(C(=O)Nc2nc3ccccc3[nH]2)C1 (stereo unspecified)	–	4	IC50 (FFLUC_HILL_SLOPE 4.02, FFLUC_R_SQUARED 0.256, PBLUC_HILL_SLOPE 1.51, PBLUC_R_SQUARED 0.42, read-out: LUCIFERASE INFECTION ASSAY - IC50): 0.935 µM
Cc1cc(O)c(C(=O)/C=C/c2cn(-c3ccccc3C)nc2-c2ccccc2)c(=O)o1	–	> 10	IC50 (FFLUC_HILL_SLOPE 4.53, FFLUC_R_SQUARED 0.503, PBLUC_HILL_SLOPE 0.894, PBLUC_R_SQUARED 0.655, read-out: LUCIFERASE INFECTION ASSAY - IC50): 6.09 µM
CC1CC1c1ccc(/C=C/C(=O)NNC(=S)NCC2CCCO2)o1 (stereo unspecified)	–	3.79	IC50 (HEPG2TOX_HILL_SLOPE 2.34, HEPG2TOX_R_SQUARED 0.989, PBLUC_HILL_SLOPE 14.4, PBLUC_R_SQUARED 0.432, read-out: LUCIFERASE INFECTION ASSAY - IC50): 3.25 µM
O=C(Nc1nnc(C2CC2)s1)c1cccc(S(=O)(=O)N2CCc3ccccc32)c1	> 10	> 10	–
COc1cc(-c2nc3ccc(NC(=O)Nc4cccc(C(F)(F)F)c4)cn3n2)cc(OC)c1OC	–	8.43	IC50 (HEPG2TOX_HILL_SLOPE 15.4, HEPG2TOX_R_SQUARED 0.156, PBLUC_HILL_SLOPE 4.31, PBLUC_R_SQUARED 0.169, read-out: LUCIFERASE INFECTION ASSAY - IC50): 5.06 µM
COC(=O)c1c(C)[nH]c(C2=NNC(=NC3CC3)SC2)c1C	–	0.0583	IC50 (FFLUC_HILL_SLOPE 1.61, FFLUC_R_SQUARED 0.895, PBLUC_HILL_SLOPE 1.62, PBLUC_R_SQUARED 0.572, read-out: LUCIFERASE INFECTION ASSAY - IC50): 0.015 µM
CC(C)CCCC(C)C1CCC2(C)C3=C(CCC12C)C1(C)CCC(=O)C(C)(C)C1CC3 (stereo unspecified)	–	6.57	IC50 (HEPG2TOX_HILL_SLOPE 3.93, HEPG2TOX_R_SQUARED 0.974, PBLUC_HILL_SLOPE 2.18, PBLUC_R_SQUARED 0.307, read-out: LUCIFERASE INFECTION ASSAY - IC50): 2.4 µM
